What was measured:
[1] = target: T1, human VEGF receptor (VEGFR-2) (Homo sapiens, UniProt P35968); assay: VEGFR2 kinase assay; assay type: biochemical; details: His-VEGFR-2 cytoplasmic domain, 3.6 μM ATP; Table IV, amide or urea linker; read-out: VEGFR2 Enzyme IC50
T1 construct: The cytoplasmic domain of the human VEGF receptor (VEGFR-2) was expressed; His; made in house; host or cells: insect cells (baculovirus)
How it was run: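 His-tagged VEGFR-2 cytoplasmic domain from baculovirus-infected insect cells phosphorylating plate-bound poly-Glu-Tyr (4:1). IC50 from blank-subtracted optical density versus compound concentration.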

VEGFR1 = VEGFR1 (Homo sapiens, UniProt P17948); assay: VEGFR1 enzyme assay; assay type: biochemical; details: Table IV, amide or urea linker
VEGFR1, sequence (P17948 27-1338, species assumed): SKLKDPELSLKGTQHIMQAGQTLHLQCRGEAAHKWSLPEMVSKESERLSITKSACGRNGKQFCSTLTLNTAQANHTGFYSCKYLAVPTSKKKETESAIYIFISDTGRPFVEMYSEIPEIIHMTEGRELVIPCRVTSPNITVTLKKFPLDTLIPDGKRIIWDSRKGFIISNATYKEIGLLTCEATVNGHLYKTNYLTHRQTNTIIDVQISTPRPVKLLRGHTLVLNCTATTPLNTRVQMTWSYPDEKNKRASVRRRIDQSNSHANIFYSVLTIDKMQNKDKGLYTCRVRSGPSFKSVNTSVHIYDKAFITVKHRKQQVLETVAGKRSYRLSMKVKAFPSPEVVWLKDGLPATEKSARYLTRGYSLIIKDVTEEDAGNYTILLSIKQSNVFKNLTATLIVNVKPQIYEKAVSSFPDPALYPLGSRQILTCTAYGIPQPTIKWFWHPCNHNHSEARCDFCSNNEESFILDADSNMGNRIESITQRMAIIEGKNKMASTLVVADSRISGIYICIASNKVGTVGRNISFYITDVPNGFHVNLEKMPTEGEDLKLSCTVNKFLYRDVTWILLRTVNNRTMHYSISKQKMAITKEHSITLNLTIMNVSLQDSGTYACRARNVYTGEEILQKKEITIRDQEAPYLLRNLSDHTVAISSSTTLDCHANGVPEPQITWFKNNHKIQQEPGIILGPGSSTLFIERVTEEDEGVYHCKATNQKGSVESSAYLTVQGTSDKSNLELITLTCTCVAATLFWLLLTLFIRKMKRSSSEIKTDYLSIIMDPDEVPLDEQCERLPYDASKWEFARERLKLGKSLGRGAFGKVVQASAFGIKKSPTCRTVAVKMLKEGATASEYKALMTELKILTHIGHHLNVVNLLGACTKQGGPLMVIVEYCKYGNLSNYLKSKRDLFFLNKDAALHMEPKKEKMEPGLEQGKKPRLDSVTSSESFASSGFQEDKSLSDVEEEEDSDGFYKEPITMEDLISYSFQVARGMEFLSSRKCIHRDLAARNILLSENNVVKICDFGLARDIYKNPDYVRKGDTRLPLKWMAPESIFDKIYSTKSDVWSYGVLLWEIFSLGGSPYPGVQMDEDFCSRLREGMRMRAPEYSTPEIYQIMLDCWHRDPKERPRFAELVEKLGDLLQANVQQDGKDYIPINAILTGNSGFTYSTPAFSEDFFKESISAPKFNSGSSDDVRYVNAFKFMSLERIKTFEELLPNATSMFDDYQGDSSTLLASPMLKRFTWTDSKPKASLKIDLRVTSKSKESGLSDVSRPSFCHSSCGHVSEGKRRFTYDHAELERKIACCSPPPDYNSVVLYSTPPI

PDGFβ = PDGFβ (Homo sapiens, UniProt P09619); assay: PDGFβ enzyme assay; assay type: biochemical; details: Table IV, amide or urea linker
PDGFβ, sequence (P09619 33-1106): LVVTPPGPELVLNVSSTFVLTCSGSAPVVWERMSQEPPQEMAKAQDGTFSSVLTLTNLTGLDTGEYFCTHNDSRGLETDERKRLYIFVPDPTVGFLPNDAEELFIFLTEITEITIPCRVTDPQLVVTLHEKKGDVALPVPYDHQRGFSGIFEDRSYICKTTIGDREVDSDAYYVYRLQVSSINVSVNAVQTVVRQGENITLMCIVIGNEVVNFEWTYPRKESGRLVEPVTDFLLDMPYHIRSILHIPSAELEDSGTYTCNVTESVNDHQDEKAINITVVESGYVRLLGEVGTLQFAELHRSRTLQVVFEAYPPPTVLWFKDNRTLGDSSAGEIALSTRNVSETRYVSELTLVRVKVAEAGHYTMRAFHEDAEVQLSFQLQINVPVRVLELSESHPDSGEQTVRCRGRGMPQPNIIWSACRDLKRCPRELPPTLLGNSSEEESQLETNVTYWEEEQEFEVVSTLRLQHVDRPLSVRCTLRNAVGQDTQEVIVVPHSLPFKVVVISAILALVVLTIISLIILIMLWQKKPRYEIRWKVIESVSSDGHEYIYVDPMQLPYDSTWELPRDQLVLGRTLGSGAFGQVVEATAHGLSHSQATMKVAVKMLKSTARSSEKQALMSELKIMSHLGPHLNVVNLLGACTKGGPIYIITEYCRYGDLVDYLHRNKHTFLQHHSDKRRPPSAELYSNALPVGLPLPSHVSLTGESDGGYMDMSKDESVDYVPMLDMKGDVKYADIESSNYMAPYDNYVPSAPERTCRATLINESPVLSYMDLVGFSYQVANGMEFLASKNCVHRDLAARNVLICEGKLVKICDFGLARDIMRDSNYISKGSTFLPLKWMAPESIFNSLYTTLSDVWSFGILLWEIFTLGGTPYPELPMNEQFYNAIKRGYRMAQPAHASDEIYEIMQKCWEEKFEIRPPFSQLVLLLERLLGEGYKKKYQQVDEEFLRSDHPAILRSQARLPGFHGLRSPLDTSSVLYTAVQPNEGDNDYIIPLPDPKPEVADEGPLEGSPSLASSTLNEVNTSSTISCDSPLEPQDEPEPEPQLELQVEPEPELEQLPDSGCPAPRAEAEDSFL

VEGFR2 = VEGFR2 (Homo sapiens, UniProt P35968); assay: VEGF stimulated Ca++ signal in vitro (FLIPR)
VEGFR2, sequence (P35968 20-1356): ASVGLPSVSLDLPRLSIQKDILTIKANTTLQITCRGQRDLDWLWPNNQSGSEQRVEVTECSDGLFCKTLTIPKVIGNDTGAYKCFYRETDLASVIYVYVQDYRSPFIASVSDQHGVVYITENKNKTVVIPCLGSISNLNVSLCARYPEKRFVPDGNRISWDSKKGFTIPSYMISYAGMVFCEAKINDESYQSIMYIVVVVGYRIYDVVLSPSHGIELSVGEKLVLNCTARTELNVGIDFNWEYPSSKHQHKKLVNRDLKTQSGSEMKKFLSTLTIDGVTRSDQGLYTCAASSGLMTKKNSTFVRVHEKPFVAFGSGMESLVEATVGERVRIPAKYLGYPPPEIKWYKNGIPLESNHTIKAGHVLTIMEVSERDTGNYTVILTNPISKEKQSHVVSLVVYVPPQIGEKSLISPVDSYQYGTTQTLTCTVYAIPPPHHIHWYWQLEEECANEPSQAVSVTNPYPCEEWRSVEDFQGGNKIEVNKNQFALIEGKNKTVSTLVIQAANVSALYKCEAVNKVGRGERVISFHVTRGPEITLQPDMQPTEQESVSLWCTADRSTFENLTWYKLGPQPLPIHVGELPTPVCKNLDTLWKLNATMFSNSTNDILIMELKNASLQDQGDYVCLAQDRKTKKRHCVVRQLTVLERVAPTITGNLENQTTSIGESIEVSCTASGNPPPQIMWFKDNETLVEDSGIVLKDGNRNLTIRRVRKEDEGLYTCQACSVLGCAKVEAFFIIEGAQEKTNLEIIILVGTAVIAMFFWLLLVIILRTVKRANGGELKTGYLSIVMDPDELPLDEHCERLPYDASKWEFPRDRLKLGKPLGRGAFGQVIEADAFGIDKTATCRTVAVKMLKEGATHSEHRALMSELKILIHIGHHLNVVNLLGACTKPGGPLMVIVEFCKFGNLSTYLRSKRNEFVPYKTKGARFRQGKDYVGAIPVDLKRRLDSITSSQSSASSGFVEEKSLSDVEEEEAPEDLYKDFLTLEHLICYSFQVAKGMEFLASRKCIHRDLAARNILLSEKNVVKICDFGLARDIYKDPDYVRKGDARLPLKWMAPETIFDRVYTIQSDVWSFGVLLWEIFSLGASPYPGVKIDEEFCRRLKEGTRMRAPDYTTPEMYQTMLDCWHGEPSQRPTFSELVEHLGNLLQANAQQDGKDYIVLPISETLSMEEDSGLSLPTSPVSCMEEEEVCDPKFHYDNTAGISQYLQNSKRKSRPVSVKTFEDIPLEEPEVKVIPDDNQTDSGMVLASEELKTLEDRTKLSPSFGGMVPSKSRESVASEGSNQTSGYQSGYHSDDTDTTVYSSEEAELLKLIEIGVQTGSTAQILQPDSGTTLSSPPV
Method: VEGF Stimulated Ca^++Signal in Vitro
Automated FLIPR (Fluorometric Imaging Plate Reader) technology was used to screen for inhibitors of VEGF induced increases in intracellular calcium levels in fluorescent dye loaded endothelial cells. HUVEC (human umbilical vein endothelial cells) (Clonetics) were seeded in 96-well fibronectin coated black-walled plates overnight at 37 degree. C./5% CO2. […] C. Cells were washed 4 times (Original Cell Wash, Labsystems) to remove extracellular dye. […] Data were generated by determining max-min fluorescence levels for unstimulated, stimulated, and drug treated samples. IC50 values for test compounds were calculated from % inhibition of VEGF stimulated responses in the absence of inhibitor.

T1 sequence (P35968 786-1356 limits assumed): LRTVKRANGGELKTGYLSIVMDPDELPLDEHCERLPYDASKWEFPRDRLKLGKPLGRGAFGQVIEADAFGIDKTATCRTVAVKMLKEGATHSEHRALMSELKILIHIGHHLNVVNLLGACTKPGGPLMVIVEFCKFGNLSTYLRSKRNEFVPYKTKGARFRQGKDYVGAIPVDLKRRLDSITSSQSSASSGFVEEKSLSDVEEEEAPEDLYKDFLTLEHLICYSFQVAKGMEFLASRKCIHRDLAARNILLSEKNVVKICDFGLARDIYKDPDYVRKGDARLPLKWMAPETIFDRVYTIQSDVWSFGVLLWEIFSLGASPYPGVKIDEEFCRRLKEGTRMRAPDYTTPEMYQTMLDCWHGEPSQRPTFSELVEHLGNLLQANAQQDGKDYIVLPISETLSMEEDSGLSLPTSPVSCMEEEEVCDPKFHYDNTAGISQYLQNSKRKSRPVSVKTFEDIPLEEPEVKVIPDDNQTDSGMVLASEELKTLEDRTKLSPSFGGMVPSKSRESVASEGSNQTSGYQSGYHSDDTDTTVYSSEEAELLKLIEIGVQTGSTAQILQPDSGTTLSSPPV

Row | Compound | IC50 [1] [nM] | IC50 (VEGFR1) [nM] | IC50 (PDGFβ) [nM] | IC50 (VEGFR2) [nM]
1 | COC(=O)[C@@H]1C[C@@H](O)CN1CCNC(=O)c1c[nH]c(-c2cc(Oc3ccc(NC(=O)Nc4cc(C)ccc4F)cc3)ccn2)c1 (relative stereo) [Example 161, methyl rel-(2R,4S)-1-(2-{[(5-{4-[4-({[(2-fluoro-5-methylphenyl)amino]carbonyl}amino)phenoxy]pyridin-2-yl}-1H-pyrrol-3-yl)carbonyl]amino}ethyl)-4-hydroxypyrrolidine-2-carboxylate] | 9 | 9 | 20 | 10
2 | COC(=O)[C@@H]1C[C@@H](O)CN1CCCNC(=O)c1c[nH]c(-c2cc(Oc3ccc(NC(=O)Nc4cc(C)ccc4F)cc3)ccn2)c1 (relative stereo) [Example 164, methyl rel-(2R,4S)-1-(3-{[(5-{4-[4-({[(2-fluoro-5-methylphenyl)amino]carbonyl}amino)phenoxy]pyridin-2-yl}-1H-pyrrol-3-yl)carbonyl]amino}propyl)-4-hydroxypyrrolidine-2-carboxylate] | 9 | 10 | 17 | 5
3 | COC(=O)[C@@H]1C[C@@H](O)CN1CCCNC(=O)c1c[nH]c(-c2cc(Oc3ccc(NC(=O)Nc4cc(C)ccc4F)c(F)c3)ccn2)c1 (relative stereo) [Example 217, methyl rel-(2R,4S)-1-(3-{[(5-{4-[3-fluoro-4-({[(2-fluoro-5-methylphenyl)amino]carbonyl}amino)phenoxy]pyridin-2-yl}-1H-pyrrol-3-yl)carbonyl]amino}propyl)-4-hydroxypyrrolidine-2-carboxylate] | 5 | 10 | 21 | 10
4 | COC(=O)CNCCCNC(=O)c1c[nH]c(-c2cc(Oc3ccc(NC(=O)Nc4cc(C)ccc4F)cc3)ccn2)c1 [Example 154, methyl [(3-{[(5-{4-[4-({[(2-fluoro-5-methylphenyl)amino]carbonyl}amino)phenoxy]pyridin-2-yl}-1H-pyrrol-3-yl)carbonyl]amino}propyl)amino]acetate] | 7 | 8 | 15 | 14
5 | COC(=O)CNCCNC(=O)c1c[nH]c(-c2cc(Oc3ccc(NC(=O)Nc4cc(C)ccc4F)cc3)ccn2)c1 [Example 155, methyl [(2-{[(5-{4-[4-({[(2-fluoro-5-methylphenyl)amino]carbonyl}amino)phenoxy]pyridin-2-yl}-1H-pyrrol-3-yl)carbonyl]amino}ethyl)amino]acetate] | 8 | 7 | 20 | 4
6 | COC(=O)CN(CCNC(=O)c1c[nH]c(-c2cc(Oc3ccc(NC(=O)Nc4cc(C)ccc4F)cc3)ccn2)c1)CC(=O)OC [Example 156, dimethyl 2,2′-[(2-{[(5-{4-[4-({[(2-fluoro-5-methylphenyl)amino]carbonyl}amino)phenoxy]pyridin-2-yl}-1H-pyrrol-3-yl)carbonyl]amino}ethyl)imino]diacetate] | 11 | 8 | 31 | 9
7 | CCOC(=O)CN1CCN(CCNC(=O)c2c[nH]c(-c3cc(Oc4ccc(NC(=O)Nc5cc(C)ccc5F)cc4)ccn3)c2)CC1 [Example 157, ethyl [4-(2-{[(5-{4-[4-({[(2-fluoro-5-methylphenyl)amino]carbonyl}amino)phenoxy]pyridin-2-yl}-1H-pyrrol-3-yl)carbonyl]amino}ethyl)piperazin-1-yl]acetate] | 10 | 8 | 39 | 3
8 | CCOC(=O)CN1CCN(CCCNC(=O)c2c[nH]c(-c3cc(Oc4ccc(NC(=O)Nc5cc(C)ccc5F)cc4)ccn3)c2)CC1 [Example 158, ethyl [4-(3-{[(5-{4-[4-({[(2-fluoro-5-methylphenyl)amino]carbonyl}amino)phenoxy]pyridin-2-yl}-1H-pyrrol-3-yl)carbonyl]amino}propyl)piperazin-1-yl]acetate] | 11 | 6 | 29 | 11
9 | Cc1ccc(F)c(NC(=O)Nc2ccc(Oc3ccnc(-c4cc(C(=O)NCCCN5CCOC(CO)C5)c[nH]4)c3)cc2)c1 (stereo not shown) [Example 159, 5-{4-[4-({[(2-fluoro-5-methylphenyl)amino]carbonyl}amino)phenoxy]pyridin-2-yl}-N-{3-[2-(hydroxymethyl)morpholin-4-yl]propyl}-1H-pyrrole-3-carboxamide] | 11 | 9 | 33 | 26
10 | COC(=O)CCCOC(=O)c1c[nH]c(-c2cc(Oc3ccc(NC(=O)Nc4cc(C)ccc4F)cc3)ccn2)c1 [Example 165, 4-methoxy-4-oxobutyl 5-{4-[4-({[(2-fluoro-5-methylphenyl)amino]carbonyl}amino)phenoxy]pyridin-2-yl}-1H-pyrrole-3-carboxylate] | 10 | 17 | 35 | 12
11 | CCOC(=O)CCCCNC(=O)c1c[nH]c(-c2cc(Oc3ccc(NC(=O)Nc4cc(C)ccc4F)cc3)ccn2)c1 [Example 167, ethyl 5-{[(5-{4-[4-({[(2-fluoro-5-methylphenyl)amino]carbonyl}amino)phenoxy]pyridin-2-yl}-1H-pyrrol-3-yl)carbonyl]amino}pentanoate] | 9 | 21 | 27 | 11
12 | CCOC(=O)N1CCN(CCNC(=O)c2c[nH]c(-c3cc(Oc4ccc(NC(=O)Nc5cc(C)ccc5F)c(F)c4)ccn3)c2)CC1 [Example 168, ethyl 4-(2-{[(5-{4-[3-fluoro-4-({[(2-fluoro-5-methylphenyl)amino]carbonyl}amino)phenoxy]pyridin-2-yl}-1H-pyrrol-3-yl)carbonyl]amino}ethyl)piperazine-1-carboxylate] | 10 | 17 | 12 | 11
13 | CCOC(=O)N1CCN(CCCNC(=O)c2c[nH]c(-c3cc(Oc4cc(C(=O)Nc5cc(C)ccc5F)ccc4F)ccn3)c2)CC1 [Example 171, ethyl 4-{3-[({5-[4-(2-fluoro-5-{[(2-fluoro-5-methylphenyl)amino]carbonyl}phenoxy)pyridin-2-yl]-1H-pyrrol-3-yl}carbonyl)amino]propyl}piperazine-1-carboxylate] | 23 | 91 | 33 | 21
14 | CCOC(=O)N1CCN(CCCNC(=O)c2c[nH]c(-c3cc(Oc4ccc(NC(=O)Nc5cc(C)ccc5F)c(F)c4)ccn3)c2)CC1 [Example 172, ethyl 4-(3-{[(5-{4-[3-fluoro-4-({[(2-fluoro-5-methylphenyl)amino]carbonyl}amino)phenoxy]pyridin-2-yl}-1H-pyrrol-3-yl)carbonyl]amino}propyl)piperazine-1-carboxylate] | 10 | 11 | 19 | 13
15 | Cc1ccoc1C(=O)Nc1cc(Oc2ccnc(-c3cc(C(=O)NCCCN4CCN(C)CC4)c[nH]3)c2)ccc1F [Example 193, 5-(4-{4-fluoro-3-[(3-methyl-2-furoyl)amino]phenoxy}pyridin-2-yl)-N-[3-(4-methylpiperazin-1-yl)propyl]-1H-pyrrole-3-carboxamide] | 31 | 35 | – | 11
16 | COC(=O)CNC(=O)c1c[nH]c(-c2cc(Oc3ccc(NC(=O)Nc4cc(C)ccc4F)c(F)c3)ccn2)c1 [Example 211, methyl {[(5-{4-[3-fluoro-4-({[(2-fluoro-5-methylphenyl)amino]carbonyl}amino)phenoxy]pyridin-2-yl}-1H-pyrrol-3-yl)carbonyl]amino}acetate] | 9 | 8 | 12 | 3
17 | Cc1ccc(F)c(NC(=O)Nc2ccc(Oc3ccnc(-c4cc(C(=O)NCCCNC(=O)OC(C)(C)C)c[nH]4)c3)cc2F)c1 [Example 212, tert-butyl (3-{[(5-{4-[3-fluoro-4-({[(2-fluoro-5-methylphenyl)amino]carbonyl}amino)phenoxy]pyridin-2-yl}-1H-pyrrol-3-yl)carbonyl]amino}propyl)carbamate] | 13 | 20 | 45 | 6
18 | COCCOC(=O)CCCNC(=O)c1c[nH]c(-c2cc(Oc3ccc(NC(=O)Nc4cc(C)ccc4F)cc3)ccn2)c1 [Example 233, 2-methoxyethyl 4-{[(5-{4-[4-({[(2-fluoro-5-methylphenyl)amino]carbonyl}amino)phenoxy]pyridin-2-yl}-1H-pyrrol-3-yl)carbonyl]amino}butanoate] | 9 | – | 22 | 5
19 | Cc1cccc(NC(=O)Nc2ccc(Oc3ccnc(-c4cc(C(=O)NN)c[nH]4)c3)cc2)c1 [Example 238, 1-[4-({2-[4-(hydrazinocarbonyl)-1H-pyrrol-2-yl]pyridin-4-yl}oxy)phenyl]-3-(3-methylphenyl)urea] | 19 | – | 28 | 4
20 | Cc1cccc(NC(=O)Nc2ccc(Oc3ccnc(-c4cc(C(=O)NCCCN5CCOCC5)c[nH]4)c3)cc2)c1 [Example 239, 5-{4-[4-({[(3-methylphenyl)amino]carbonyl}amino)phenoxy]pyridin-2-yl}-N-(3-morpholin-4-ylpropyl)-1H-pyrrole-3-carboxamide] | 7 | – | 16 | 2
21 | COC(=O)CCNC(=O)c1cc(-c2cc(Oc3ccc(NC(=O)Nc4cc(C)ccc4F)cc3)ccn2)cs1 [Example 279, methyl 3-{[(4-{4-[4-({[(2-fluoro-5-methylphenyl)amino]carbonyl}amino)phenoxy]pyridin-2-yl}-2-thienyl)carbonyl]amino}propanoate] | 21 | – | 23 | 1

Source: patent publication US8906944B2, “Compounds as tyrosine kinase modulators” (Allergan, Inc., priority 2009, dated 2014)
